Reference: ChEMBL document CHEMBL1201862, “PubChem BioAssay data set” (2004)
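Exposure lasted 48 hours, with cells grown in 96-well plates and compounds tested at five concentrations. Here, GI50 denotes the concentration required for 50% inhibition of growth.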 The source made the active and inactive calls. No stated cut-off is given here; in the data, active = GI50 up to about 1.1 µM and inactive = higher.

Columns and labels:
Assay in all cases: NCI-60 cell line screen, 48 h
786-0 = system: 786-0
A498 = system: A498
A549 = system: A549
DMS-273 = system: DMS-273
EKVX = system: EKVX
HCT-116 = system: HCT-116
HOP-62 = system: HOP-62
HOP-92 = system: HOP-92
HT-29 = system: HT-29
NCI-H226 = system: NCI-H226
OVCAR-4 = system: OVCAR-4
OVCAR-8 = system: OVCAR-8
RXF 393 = system: RXF 393
SK-MEL-2 = system: SK-MEL-2
SK-OV-3 = system: SK-OV-3
SR = system: SR
MDA-MB-231 = system: MDA-MB-231
MDA-MB-435 = system: MDA-MB-435
MDA-N = system: MDA-N
PC-3 = system: PC-3

| SMILES | GI50 (786-0) | GI50 (A498) | GI50 (A549) | GI50 (DMS-273) | GI50 (EKVX) | GI50 (HCT-116) | GI50 (HOP-62) | GI50 (HOP-92) | GI50 (HT-29) | GI50 (NCI-H226) | GI50 (OVCAR-4) | GI50 (OVCAR-8) | GI50 (RXF 393) | GI50 (SK-MEL-2) | GI50 (SK-OV-3) | GI50 (SR) | GI50 (MDA-MB-231) | GI50 (MDA-MB-435) | GI50 (MDA-N) | GI50 (PC-3) |
| --- | --- | --- | --- | --- | --- | --- | --- | --- | --- | --- | --- | --- | --- | --- | --- | --- | --- | --- | --- | --- |
| CC1CCC2(C)C(CC=C(C=O)C2(O)C=O)C12CO2 (configuration not stated) | 2.4 µM (inactive) | 6.7 µM (inactive) | 10.4 µM (inactive) | 1.79 µM (inactive) | 6.98 µM (inactive) | 1.49 µM (inactive) | 20.9 µM (inactive) | 2.01 µM (inactive) | 2.55 µM (inactive) | 0.665 µM (active) | 2.23 µM (inactive) | 2.22 µM (inactive) | 1.48 µM (inactive) | 2.52 µM (inactive) | 3.27 µM (inactive) | 1.71 µM (inactive) | – | – | – | – |
| O=[N+]([O-])CCc1cccc([N+](=O)[O-])c1 | > 100 µM (inactive) | > 100 µM (inactive) | > 100 µM (inactive) | > 100 µM (inactive) | > 100 µM (inactive) | > 100 µM (inactive) | > 100 µM (inactive) | > 100 µM (inactive) | > 100 µM (inactive) | > 100 µM (inactive) | > 100 µM (inactive) | > 100 µM (inactive) | > 100 µM (inactive) | > 100 µM (inactive) | – | > 100 µM (inactive) | – | – | – | – |
| NC(=S)N/N=C1/C(=O)N(c2ccccc2)C(=O)C1C(=O)Nc1ccccc1 (configuration not stated) | > 100 µM (inactive) | > 100 µM (inactive) | > 100 µM (inactive) | > 100 µM (inactive) | > 100 µM (inactive) | > 100 µM (inactive) | > 100 µM (inactive) | > 100 µM (inactive) | > 100 µM (inactive) | > 100 µM (inactive) | > 100 µM (inactive) | > 100 µM (inactive) | > 100 µM (inactive) | > 100 µM (inactive) | > 100 µM (inactive) | > 100 µM (inactive) | – | – | – | – |
| COc1cc([C@@H]2c3cc4c(cc3[C@@H](OC3OC5CO[C@@H](c6cccs6)OC5C(O)C3O)[C@H]3COC(=O)[C@H]23)OCO4)cc(OC)c1O (some centres not stated) | 0.285 µM (active) | 0.394 µM (active) | 0.144 µM (active) | 0.084 µM (active) | 1.3 µM (inactive) | 0.885 µM (active) | 0.135 µM (active) | 0.132 µM (active) | 1.61 µM (inactive) | 0.32 µM (active) | 5.12 µM (inactive) | 0.538 µM (active) | 0.478 µM (active) | 1.09 µM (active) | 0.395 µM (active) | 0.0117 µM (active) | 1.12 µM (active) | 1.34 µM (inactive) | 1.03 µM (active) | 1.11 µM (active) |
| CC(=O)OCC(OC(C)=O)C(OC(C)=O)C(OC(C)=O)C(=O)CNn1c(-c2ccccc2)nc2ccc(Br)cc2c1=O (configuration not stated) | > 100 µM (inactive) | > 100 µM (inactive) | > 100 µM (inactive) | > 100 µM (inactive) | > 100 µM (inactive) | > 100 µM (inactive) | > 100 µM (inactive) | – | > 100 µM (inactive) | > 100 µM (inactive) | > 100 µM (inactive) | > 100 µM (inactive) | > 100 µM (inactive) | > 100 µM (inactive) | > 100 µM (inactive) | > 100 µM (inactive) | – | – | – | – |
| CC1CSC(=S)N1C(=O)N1C(=S)SCC1C (configuration not stated) | 27.8 µM (inactive) | 27.5 µM (inactive) | 35.6 µM (inactive) | 20.1 µM (inactive) | 28.8 µM (inactive) | 24.4 µM (inactive) | 43.4 µM (inactive) | 27.7 µM (inactive) | 27.4 µM (inactive) | 26.5 µM (inactive) | – | 16.7 µM (inactive) | 12.9 µM (inactive) | 21.3 µM (inactive) | 40.9 µM (inactive) | 12.5 µM (inactive) | 22.2 µM (inactive) | 17.2 µM (inactive) | 19.6 µM (inactive) | 24.7 µM (inactive) |
| C#CCNC(=O)NC(CCCNC(=O)OCc1ccccc1)C(=O)OCc1ccccc1 (configuration not stated) | > 100 µM (inactive) | > 100 µM (inactive) | > 100 µM (inactive) | > 100 µM (inactive) | > 100 µM (inactive) | > 100 µM (inactive) | > 100 µM (inactive) | 19.3 µM (inactive) | > 100 µM (inactive) | > 100 µM (inactive) | > 100 µM (inactive) | > 100 µM (inactive) | 30.1 µM (inactive) | 33.7 µM (inactive) | > 100 µM (inactive) | > 100 µM (inactive) | – | – | – | – |
| O=C1N/C(=C\[N+](=O)[O-])c2ccccc21 | > 100 µM (inactive) | > 100 µM (inactive) | > 100 µM (inactive) | > 100 µM (inactive) | > 100 µM (inactive) | > 100 µM (inactive) | > 100 µM (inactive) | > 100 µM (inactive) | > 100 µM (inactive) | > 100 µM (inactive) | > 100 µM (inactive) | > 100 µM (inactive) | > 100 µM (inactive) | – | > 100 µM (inactive) | > 100 µM (inactive) | – | – | – | – |
| C=C(c1ccccc1)[C@@]1(O)CC[C@@H]1N(CC#N)Cc1ccccc1 | 18.4 µM (inactive) | 13.6 µM (inactive) | 32.9 µM (inactive) | 20.5 µM (inactive) | 37.7 µM (inactive) | 16.6 µM (inactive) | 97.3 µM (inactive) | 18.7 µM (inactive) | 19.8 µM (inactive) | 35.2 µM (inactive) | 15.3 µM (inactive) | 33.4 µM (inactive) | 17.7 µM (inactive) | 20.9 µM (inactive) | 98.9 µM (inactive) | 37.2 µM (inactive) | 14 µM (inactive) | 22.5 µM (inactive) | 22.3 µM (inactive) | 22.9 µM (inactive) |
| CC1=CC(=O)c2cccc(O)c2C1=O | 1.7 µM (inactive) | 18.5 µM (inactive) | 14.9 µM (inactive) | 2.42 µM (inactive) | 4.29 µM (inactive) | 1.91 µM (inactive) | 17.1 µM (inactive) | 1.85 µM (inactive) | 4.27 µM (inactive) | 7.28 µM (inactive) | 1.92 µM (inactive) | 2.56 µM (inactive) | 1.88 µM (inactive) | 2.09 µM (inactive) | 14.3 µM (inactive) | 1.8 µM (inactive) | 1.76 µM (inactive) | 1.78 µM (inactive) | 1.9 µM (inactive) | 2.1 µM (inactive) |
| Nc1c(-c2ccccc2-c2c(N)[n+]([O-])c3ccccc3[n+]2[O-])[n+]([O-])c2ccccc2[n+]1[O-] | 12 µM (inactive) | 20.8 µM (inactive) | 11.4 µM (inactive) | 4.66 µM (inactive) | 5.37 µM (inactive) | 6.71 µM (inactive) | – | > 100 µM (inactive) | 6.9 µM (inactive) | 19.5 µM (inactive) | 4.89 µM (inactive) | 3.7 µM (inactive) | 30.3 µM (inactive) | 34.8 µM (inactive) | 22.9 µM (inactive) | 4.3 µM (inactive) | – | – | – | – |
| COc1cc2cc3c4c(cc(OC)c(OC)c4c2cc1OC)CCN3C(=O)CCC(=O)NCCCN(C)C | 78 µM (inactive) | – | > 100 µM (inactive) | 73.1 µM (inactive) | 72.1 µM (inactive) | 43.1 µM (inactive) | 50.7 µM (inactive) | 10 µM (inactive) | 22.6 µM (inactive) | 66.8 µM (inactive) | > 100 µM (inactive) | > 100 µM (inactive) | > 100 µM (inactive) | 20.1 µM (inactive) | 46.2 µM (inactive) | 25.2 µM (inactive) | – | – | – | – |
| COc1cc(NS(C)(=O)=O)ccc1NCc1c2ccccc2nc2ccccc12 | 40.6 µM (inactive) | – | 67 µM (inactive) | 28.4 µM (inactive) | 42.6 µM (inactive) | 3.45 µM (inactive) | – | 17.3 µM (inactive) | 31.6 µM (inactive) | > 100 µM (inactive) | 0.0571 µM (active) | 30.9 µM (inactive) | 13.9 µM (inactive) | 44.4 µM (inactive) | > 100 µM (inactive) | 4.71 µM (inactive) | – | – | – | – |
| COc1ccc(C2=NOP(c3ccccc3)(c3ccccc3)(c3ccccc3)C2)cc1 | 21.2 µM (inactive) | 33.3 µM (inactive) | 22.5 µM (inactive) | 16.6 µM (inactive) | 63.1 µM (inactive) | 2.39 µM (inactive) | 20.8 µM (inactive) | 6.46 µM (inactive) | 1.55 µM (inactive) | 25.9 µM (inactive) | 29.6 µM (inactive) | 14.8 µM (inactive) | 28.9 µM (inactive) | 7.08 µM (inactive) | 43.6 µM (inactive) | 7.46 µM (inactive) | – | – | – | – |
